The values that follow come from the COVID Moonshot data (paper PMC7615835).

“And” between values parts separate entries of the source, which are not always exact repeats. Equal entries are not always repeated.

The target in this experiment is SARS-CoV-2 Main Protease (SARS-CoV-2) (UniProt P0DTD1).
With `Cc1ccccc1CN(C(=O)c1cocn1)C(C(=O)NCCc1cccc(F)c1)c1cccnc1` (centres undefined), the IC50 was above 99.5 µM. The same measure for `CN(C)C(=O)c1ccc2c(NC(=O)Cc3cccc(Cl)c3)cncc2c1`: 2.44 µM; for `O=C(Cc1cc(Cl)cc(N2CCN(Cc3ccc(C(F)(F)F)cc3)CC2)c1)Nc1cncc2ccccc12`: 4.28 µM; for `CC(C)(C)c1ccc(N(C(=O)c2cc(=O)[nH]c(=O)[nH]2)C(C(=O)NCCc2cccc(F)c2)c2cccnc2)cc1` (centres undefined): above 99.5 µM.

For the compound `O=C(Cn1ccc(=O)[nH]c1=O)N1CCN(c2ccccc2O)CC1`, the concentration for half-maximal inhibition (IC50) is above 99.5 µM. `Cc1ccc(N(Cc2cccc(Cl)c2)C(=O)Cn2nnc3ccccc32)cc1` had an IC50 of 2.33 µM. The same measure for `Cc1nc2scc(C)n2c1CN1CCN(Cc2ccsc2)CC1`: above 99.5 µM; for `O=C(Cc1cc(Cl)cc(Nc2cc(Cl)cc([N+](=O)[O-])c2O)c1)Nc1cncc2ccccc12`: 4.69 µM; for `CN(Cc1cccc(Cl)c1)C(=O)Cn1nnc2ccccc21`: above 99.5 µM.

Compound `O=C(c1cc(=O)[nH]c2ccccc12)N1CCN(c2ccccc2F)CC1` gave an IC50 of 24 µM.

`CNC(=O)C1(CC(=O)Nc2cncc3ccccc23)CCOc2ccc(Cl)cc21` (centres undefined) came in with an IC50 of 30.7 µM. The figure for `CCC(=O)Nc1ccc(N(C)C(=O)Cn2nnc3ccccc32)cc1` is above 99.5 µM. The same measure for `Cc1ccncc1NC(=O)C(C)(C)c1cccc(Cl)c1`: 95.8 µM and 98.1 µM; for `Cc1ncc(CN2Cc3ccc(Cl)cc3C(C(=O)Nc3cncc4ccc(F)cc34)C2)[nH]1` (centres undefined): 0.307 µM; for `Cc1c(Br)cnc(Nc2cc(Cl)cc(CC(=O)Nc3cncc4ccccc34)c2)c1[N+](=O)[O-]`: 2.17 µM.

Take `O=C(NCCc1cccc(F)c1)C(c1cccnc1)N(C(=O)c1cnc[nH]1)c1ccc(Cl)cc1` (centres undefined): the IC50 was above 99.5 µM. `CC(C)(C#N)CS(=O)(=O)N1Cc2ccc(Cl)cc2[C@@H](C(=O)Nc2cncc3ccccc23)C1` (stereo in doubt) yielded an IC50 of 13.2 µM. The figure for `COc1cnc(C#N)nc1` is above 99.5 µM.

The compound `Cn1nc2c(c1C(=O)N(c1ccc(C(C)(C)C)cc1)C(C(=O)NCCc1cccc(F)c1)c1cccnc1)CS(=O)(=O)CC2` (centres undefined) came in with an IC50 above 99.5 µM.

With `O=C1NC[C@H](C(=O)Nc2cncc3ccccc23)c2cc(Cl)ccc21` (stereo in doubt), the IC50 worked out at 0.185 µM.

As to `N#CC1(CS(=O)(=O)N2Cc3ccc(Cl)cc3C(C(=O)Nc3cncc4cc(F)ccc34)C2)CC1` (centres undefined), the concentration for half-maximal inhibition (IC50) is 0.222 µM. The same measure for `CNC(=O)CN1C[C@H](C(=O)Nc2cncc3cccc(Cl)c23)c2cc(Cl)ccc2C1=O` (stereo in doubt): 0.0964 µM; for `Cc1ccncc1NC(=O)Cc1cc(Cl)cc(OCc2nn(C(=O)OC(C)(C)C)c3ccccc23)c1`: above 99.5 µM; for `CN1CCN(c2ccc(Nc3cc(Cl)cc(CC(=O)Nc4cncc5ccccc45)c3)cc2F)CC1`: 2.8 µM. In turn, `COc1cc(OC)[n+](C)c(C#N)n1` gave an IC50 above 99.5 µM. The figure for `COc1ccccc1NCCNC(=O)c1cc(=O)[nH]c2ccccc12` is above 99.5 µM; for `CCOC(=O)CCCNC(=O)C(c1cccnc1)N(C(=O)c1cocn1)c1ccc(C(C)(C)C)cc1` (centres undefined) it is 6.24 µM.

`CC(C)N1CCCC(N2CCN(c3ccc4nccnc4n3)CC2)C1=O` (centres undefined) had an IC50 above 99.5 µM. The figure for `NC(=O)c1ccc2c(NC(=O)Cc3cccc(Cl)c3)cncc2c1` is 1.59 µM. In turn, `Cc1ccc(S(=O)(=O)N2CCN(C(=O)c3cc(=O)[nH]c4cc(F)ccc34)CC2)c(C)c1` came in with an IC50 above 99.5 µM. `CCN(C)CCOc1ccc2cncc(N3CCC4(CN(S(=O)(=O)CC5(C#N)CC5)Cc5ccc(Cl)cc54)C3=O)c2c1` (centres undefined) yielded an IC50 of 0.401 µM. Consider `C=CC(=O)N(c1ccc(C2(C)CC2)cc1)C(C(=O)Nc1cccc(CC)c1)c1cccnc1` (centres undefined), for which the IC50 is above 99 µM. Consider `CN1CCn2nc(C(=O)N(c3ccc(C(C)(C)C)cc3)C(C(=O)NCCc3cccc(F)c3)c3cccnc3)cc2S1(=O)=O` (centres undefined), for which the IC50 was above 99.5 µM.

For `O=C(NCCc1cccc(F)c1)C(c1cccnc1)N(C(=O)c1cocn1)c1ccc(-n2cc[nH]c2=O)cc1` (centres undefined), the IC50 worked out at 45.1 µM.

In turn, `CNC(=O)CN1C[C@@]2(CC(=O)N(c3cncc4ccccc34)C2=O)c2cc(Cl)ccc2C1=O` (stereo in doubt) displayed an IC50 of 0.123 µM. With `O=C(OCC(=O)N1CCC(Cc2ccccc2)CC1)c1cc(=O)[nH]c(=O)[nH]1`, the IC50 was above 99.5 µM. The figure for `N#Cc1ccc(Nc2cc(Cl)cc(CC(=O)Nc3cncc4ccccc34)c2)cc1Br` is 2.16 µM; for `N#Cc1cnn(-c2ccccn2)c1Nc1cc(Cl)cc(CC(=O)Nc2cncc3ccccc23)c1` it is 1.72 µM.

Turning to `Cc1ccc(N(Cc2cscn2)C(=O)Cc2cncc3ccccc23)cc1`, the IC50 is 8.09 µM.

As to `Cc1nc(Nc2cc(Cl)cc(CC(=O)Nc3cncc4ccccc34)c2)ccc1Br`, the IC50 was 2.07 µM. The same measure for `C/C=C/C=C/C(=O)N1CC=C(c2c[nH]c3ncccc23)CC1`: above 99.5 µM; for `O=C(Cc1cc(Cl)cc(Nc2ncccc2C(F)(F)F)c1)Nc1cncc2ccccc12`: 1.94 µM; for `CC(C)(C)c1cc(Nc2cc(Cl)cc(CC(=O)Nc3cncc4ccccc34)c2)n(-c2ccccc2)n1`: 2.04 µM. Compound `O=C(Cc1cccc(Cl)c1)Nc1[nH]nc2cc(F)ccc12` gave an IC50 above 99.5 µM. The figure for `COc1ccccc1NC1CN(C(=O)c2cc(=O)[nH]c3ccccc23)C1` is above 99.5 µM; for `CCCCc1nc(-c2nccn2CC(F)(F)F)c[nH]1` it is 23.1 µM. In the case of `O=C(Nc1ccccc1)[C@@H](c1ccccc1)N1Cc2ccccc2C1=O` (stereo in doubt), the IC50 was above 99.5 µM. The figure for `O=C(Nc1cncc2ccccc12)C12CCC(O1)c1cc(Cl)ccc12` (centres undefined) is 2.39 µM; for `O=C(Cc1cccc(Cl)c1)Nc1cncc2nccnc12` it is 76 µM. In turn, `O=C(Cc1cc(Cl)cc(Nc2c(F)cc(F)cc2[N+](=O)[O-])c1)Nc1cncc2ccccc12` gave an IC50 of 2.04 µM.

In turn, `O=C(NCCc1cccc(F)c1)C(c1cccnc1)N(C(=O)c1cnc[nH]1)C1CCCCCC1` (centres undefined) registered an IC50 above 99 µM. `O=C(Cc1cc(Cl)cc(Nc2cc(C(F)(F)F)ccc2N2CCCC2)c1)Nc1cncc2ccccc12` had an IC50 of 3.51 µM. The figure for `CCCNC(=O)CN1CC(C(=O)Nc2cncc3ccccc23)c2cc(Cl)ccc2C1=O` (centres undefined) is 0.0864 µM and 0.174 µM; for `COc1ccccc1N1CCN(c2cc(Cl)cc(CC(=O)Nc3cncc4ccccc34)c2)CC1` it is 2.98 µM. As for `CC(C)(C)Oc1ccncc1NC(=O)Cc1cccc(Cl)c1`, the IC50 is 22.9 µM. The figure for `N#Cc1nccn1CCCc1cccc(Cl)c1` is above 99.5 µM; for `Cc1ccncc1NC(=O)N(C)c1cccc(Cl)c1` it is above 99.5 µM. The same measure for `C=CC(=O)N(c1ccc(C(C)(C)C)cc1)[C@H](C(=O)NCCc1cccc(F)c1)c1cccnc1` (stereo in doubt): 2.86 µM. The figure for `O=C(Cc1cc(O)cc(Cl)c1)Nc1cncc2ccccc12` is 9.89 µM; for `Cc1nc2ccc(NC(=O)Cn3ncn4nccc4c3=O)cc2s1` it is above 99.5 µM. On to `O=C(NCCc1cccc(F)c1)C(c1cccnc1)N(C(=O)c1cocn1)C1CCCCCC1` (centres undefined), for which the IC50 is above 99.5 µM. The figure for `CSCCNC(=O)C(c1cccnc1)N(C(=O)c1cocn1)c1ccc(C(C)(C)C)cc1` (centres undefined) is 2.45 µM. Consider `CN1C(=O)CC(O)(C(=O)Nc2cncc3ccccc23)c2cc(Cl)ccc21` (centres undefined), for which the IC50 was determined as 20.7 µM. The figure for `O=C1CC2(CCOc3ccc(Cl)cc32)CN1c1cncc2ccccc12` (centres undefined) is 6.74 µM. The figure for `O=C(c1cc(=O)cc[nH]1)N1CCN(c2cccc(Cl)c2)CC1` is above 99.5 µM; for `CCOC(=O)c1cc(-c2ccccc2)sc1NC(=O)Cc1csc(-c2ccccc2)n1` it is 4.66 µM. The same measure for `O=c1[nH]c(Cc2cccc(C(F)(F)F)c2)nc2cnccc12`: above 99.5 µM; for `O=C(Cc1cc(Cl)cc(N2CCN(Cc3cccc(F)c3)CC2)c1)Nc1cncc2ccccc12`: 3.28 µM; for `CNC(=O)CN1Cc2ccc(Cl)cc2C2(CCN(c3cncc4ccc(OCCN(C)C)cc34)C2=O)C1` (centres undefined): 0.21 µM. Consider `CNS(=O)(=O)c1cc2c(cc1OCc1ccccc1)OCO2`, for which the IC50 is above 99.5 µM. In the case of `COc1ccccc1OCCC(=O)Nc1cncc2ccccc12`, the 50% inhibitory concentration (IC50) was 93.6 µM and > 99.5 µM. The same measure for `O=C(Nc1cncc2sc(Cl)cc12)C1CCOc2ccc(Cl)cc21` (centres undefined): 1.03 µM; for `O=C(Cc1cc(Cl)cc(Nc2cccc(N3CCOCC3)c2)c1)Nc1cncc2ccccc12`: 2.44 µM; for `N#CC1(CS(=O)(=O)N2Cc3ccc(Cl)cc3[C@@H](C(=O)Nc3cncc4ccccc34)C2)CCS(=O)(=O)CC1` (stereo in doubt): 15.3 µM. Regarding `COc1ccc(C2CC(c3ccccc3)=NN2C(=O)CCl)cc1OC` (centres undefined), the IC50 worked out at 0.543 µM.

The compound `O=C(NCCc1cccc(F)c1)C(c1cccnc1)N(C(=O)c1cocn1)c1ccc2nc(C(F)(F)F)[nH]c2c1` (centres undefined) displayed a concentration for half-maximal inhibition (IC50) of 77.6 µM.

As for `CS(=O)(=O)CCN1CC(C(=O)Nc2cncc3ccccc23)c2cc(Cl)ccc2C1=O` (centres undefined), the IC50 is 0.177 µM.

`C=CC(=O)N(c1ccc(I)cc1)C(C(=O)Nc1ccc(Cl)cc1)c1cncnc1` (centres undefined) had an IC50 of 26.3 µM.

As for `O=C(Nc1cncc2ccccc12)C1CN(S(=O)(=O)NC2CCC2)Cc2ccc(Cl)cc21` (centres undefined), the IC50 was 0.0999 µM and 0.132 µM and 0.127 µM.

Consider `Cn1ccn2c(CNc3nc4ccccc4s3)nnc2c1=O`, for which the IC50 was above 99.5 µM. As to `O=C1NC2(COc3ccc(Cl)cc32)C(=O)N1c1cncc2ccc(F)cc12` (centres undefined), the IC50 was determined as 1.38 µM.

`O=C(Nc1cncc2ccccc12)C12CCC(O1)c1ccc(Cl)cc12` (centres undefined) showed an IC50 of 11.1 µM. Turning to `O=C(Cc1cccc(C(F)(F)F)c1)Nc1cnccc1C(=O)O`, the IC50 was above 99.5 µM. The figure for `CC(=O)NC(C)c1cc(Cl)cc(-c2ccc(S(N)(=O)=O)cc2)c1` (centres undefined) is above 99.5 µM; for `CC(C)(C)c1ccc(N(C(=O)c2ccco2)C(C(=O)Nc2ccccc2)c2cccnc2)cc1` (centres undefined) it is 11.2 µM; for `O=C(c1cc(=O)[nH]c2ccccc12)N1CCN(Cc2ccccc2)CC1` it is 8.76 µM. The same measure for `CNC(=O)CN1CC(C(=O)Nc2cncc3c2CCCC3)c2cc(Cl)ccc2C1=O` (centres undefined): 0.448 µM; for `CC1(C(=O)Nc2cncc3ccc(F)cc23)CNS(=O)(=O)c2ccc(Cl)cc21` (centres undefined): 0.441 µM. The figure for `O=C(CCl)N1CCN(Cc2cc(Cl)cc(Cl)c2)CC1` is 1.89 µM.

As usually defined, the IC50 is the point on the concentration scale where inhibition reaches its midpoint. A low value points to greater potency in that assay.
